Source: article PMC8617063 (Nature Communications, 2021)
Like-named read-outs stand apart in the source and are kept apart here. Ends that are not written are not given here.

What was measured:
tail bleeding = conditions: rat, in vivo; for RT50 for bleeding: iv
saphenous vein bleeding = conditions: rat, in vivo
ear vein bleeding = conditions: pig, in vivo
[1] = in vivo, cited from earlier work
α-thrombin [2] = molecular target: α-thrombin (UniProt P00734)
thrombin = thrombin (Homo sapiens, UniProt P00734); experiment: biochemical
α-thrombin [3] = molecular target: α-thrombin (UniProt P00734); experiment: enzyme inhibition (thrombin amidolytic activity on chromogenic substrate S2238); 0.83 nM thrombin, varying concentrations of peptide, 100 µM S2238 (100-400 µM for ultravariegin); 50 mM Tris pH 7.4, 100 mM NaCl, 1 mg/ml BSA, room temperature; tight-binding fit gives apparent Ki', Ki from Ki' for competitive inhibition; for UV011 Ki = IC50 (non-competitive inhibition assumed)

Compound | Tail bleeding (tail bleeding) [min] | RT50 for bleeding (tail bleeding) | Sephaneous vein bleeding (saphenous vein bleeding) [min] | bleeding time (ear vein bleeding) [min] | Ki (thrombin; Ki (pM)) [pM] | also measured
CC[C@H](C)[C@H](NC(=O)[C@H](CCC(=O)O)NC(=O)[C@H](CCC(=O)O)NC(=O)[C@H](Cc1ccccc1)NC(=O)[C@H](CC(=O)O)NC(=O)CNC(=O)[C@H](CC(N)=O)NC(=O)CNC(=O)CNC(=O)CNC(=O)CNC(=O)[C@@H]1CCCN1C(=O)[C@H](CCCNC(=N)N)NC(=O)[C@@H]1CCCN1C(=O)[C@H](N)Cc1ccccc1)C(=O)N1CCC[C@H]1C(=O)N[C@@H](CCC(=O)O)C(=O)N[C@@H](CCC(=O)O)C(=O)N[C@@H](Cc1ccc(O)cc1)C(=O)N[C@@H](CC(C)C)C(=O)O [Bivalirudin, reference compound] | 20.5 | 4.0 mg/kg/h | 4.131 | 45 |  | tail bleeding time (tail bleeding): maximal bleeding; half-life [1]: 25 min; plasma concentration [1]: around 2.7 µM
CC[C@H](C)[C@H](NC(=O)[C@H](C)NC(=O)[C@H](CCC(=O)O)NC(=O)[C@H](Cc1ccccc1)NC(=O)[C@H](CC(=O)O)NC(=O)[C@H](Cc1ccccc1)NC(=O)[C@@H]1CCCN1C(=O)[C@@H]1CCCN1C(=O)[C@H](C)NC(=O)[C@@H](NC(=O)[C@H](CCCCN)NC(=O)[C@H](Cc1cnc[nH]1)NC(=O)[C@H](CCSC)NC(=O)[C@H](CCCCN)NC(=O)[C@@H]1CCCN1C(=O)[C@H](CCC(=O)O)NC(=O)[C@H](C)NC(=O)[C@@H](NC(=O)[C@H](CC(=O)O)NC(=O)CNC(=O)[C@H](CCC(N)=O)NC(=O)[C@H](CC(=O)O)NC(=O)[C@@H](N)CO)C(C)C)[C@@H](C)O)C(=O)N1CCC[C@H]1C(=O)N[C@@H](CCC(=O)O)C(=O)N[C@@H](CCC(=O)O)C(=O)N[C@@H](Cc1ccc(O)cc1)C(=O)N[C@@H](CC(C)C)C(=O)N[C@@H](CC(=O)O)C(=O)N[C@@H](CC(=O)O)C(=O)N[C@@H](CCC(=O)O)C(=O)N[C@@H](CO)C(=O)O [Variegin] | 8 | 5.3 mg/kg | 2.613 | 7.7 ± 2.6 |  | Bleeding, Response time (tail bleeding): 60 min; tail bleeding time (tail bleeding): ~ 30 min; bleeding time (ear vein bleeding; iv, 1 mg/kg): 10.3 min; average plasma concentration [1]: ~ 30 nM; half-life [1]: 52.3 ± 4.4 min; volume of distribution ([1]; pig): around 750 ml/kg
Bivalirudin (peptide) |  |  |  |  |  | Ki (α-thrombin [2]): 1780 pM
MYSTAPPGDFEEIPDDAIEE [UV011] |  |  |  |  | 1660 ± 759 | 
SDEAVRAIPKMYSTAPPGDFEEIPDDAIEE [Ultravariegin] | 7.5 | 2.0 mg/kg | 2.252 | 6.2 ± 1.3 | 4.02 | Ki (thrombin; Ki, y-intercept of line fitted to Ki′ = Ki (1 + S/Km)): 4.2 ± 0.3 pM
SDEAVRAIPKMYSTAPPGDFETIPDDAIEE [DAA34688.1 repeat 1C] |  |  |  |  | 6.5 ± 1.3 | 
SDEAVRAIPKMYSTAPPGDFETIPDDAIEER [DAA34688.1 repeat 1B] |  |  |  |  | 20.5 ± 4.7 | 
SDEAVRAIPKMYSTAPPGDFETIPDDAIEEREMKAR [DAA34688.1 repeat 1] |  |  |  |  | 43.2 ± 8 | 
SGGHQTAVPKISKQGLGGDFEEIPSDEIIE [Avathrin, reference compound] |  |  |  |  | 624 ± 86 | 
Ultravariegin (peptide) |  |  |  |  |  | Ki (α-thrombin [3]): 4 pM
